Results: article PMC7933318, “Engineering a lipoxygenase from cyclocybe aegerita towards long chain polyunsaturated fatty acids” (AMB Express, 2021)

Molecular target: T1, CaeLox1 (Cyclocybe aegerita, UniProt A0A8A1QR86)
T1 construct: gene LOX1; codon-optimized cDNA in pET28a, E. coli BL21-Gold (DE3), Ni-NTA purified
T1 sequence (A0A8A1QR86 1-656): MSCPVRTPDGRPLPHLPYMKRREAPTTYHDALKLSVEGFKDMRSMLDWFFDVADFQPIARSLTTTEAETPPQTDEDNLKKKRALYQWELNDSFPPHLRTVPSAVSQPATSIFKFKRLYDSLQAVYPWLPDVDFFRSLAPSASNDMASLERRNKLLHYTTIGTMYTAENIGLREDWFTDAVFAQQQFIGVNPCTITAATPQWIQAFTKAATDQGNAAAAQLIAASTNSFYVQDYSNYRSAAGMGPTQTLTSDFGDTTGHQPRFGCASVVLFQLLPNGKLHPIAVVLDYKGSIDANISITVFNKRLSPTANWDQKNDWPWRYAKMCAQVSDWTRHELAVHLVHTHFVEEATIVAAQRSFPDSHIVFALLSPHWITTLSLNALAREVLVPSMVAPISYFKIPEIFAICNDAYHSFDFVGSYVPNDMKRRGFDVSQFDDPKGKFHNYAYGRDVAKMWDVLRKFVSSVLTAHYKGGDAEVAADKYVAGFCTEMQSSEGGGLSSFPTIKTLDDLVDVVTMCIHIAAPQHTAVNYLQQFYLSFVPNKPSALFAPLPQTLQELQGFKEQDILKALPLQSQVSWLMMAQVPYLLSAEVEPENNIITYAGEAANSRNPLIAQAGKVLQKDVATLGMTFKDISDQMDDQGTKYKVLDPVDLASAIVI
Assay: conjugated diene formation at […] nm, specific activity
Format: biochemical
Conditions: 1.25 mM PUFA, 50 mM phosphate pH 7.5, 25 °C

CCCCC/C=C\C/C=C\CCCCCCCC(=O)O [LA, linoleic acid]
specific activity: we investigated the specific activities of PUFAs occurring (linoleic acid, linolenic acid)
